In patent publication US12697366B2, “Thermogenic compositions and methods” (Ohio State Innovation Foundation, priority 2016, dated 2026):

System: DIO mice
Experiment: Study 3 (Example 2): EREG injected into epididymal iAb fat of DIO mice
Format: in vivo, mouse
Procedure: 6-week old C57BL6/J male mice (WT) were fed a high fat diet (HF, 45% kcal from fat, D12451, Research Diet Inc., New Brunswick, NJ) for 30 days. Then mice were randomly assigned for • 1) a control group injected with 0.1 mL sterile phosphate buffered saline (PBS) into both epididymal iAb fat (n=7), and • 2) EREG-treated group injected with 20 ng EREG per epididymal iAb fat depot (n=7). Mice were injected with 0.1 mL sterile PBS, containing 200 ng EREG/mL. Mice were individually housed and pair fed when injection started. Mice were injected every other day for 2 weeks. Metabolic measurements were performed as described in 2.5. WAT were collected for protein, mRNA, and histology. Metabolic parameters in study 2.3 and 2.4 were measured by indirect calorimetry (CLAMS, Columbus Instruments, Columbus, OH) at ambient temperature (22° C.) with 12 h light/dark cycles. Animals were fed the same HF diet and water provided ad libitum. Mice were placed individually and allowed to acclimatize in the chambers for 12 h, and O2 consumption, CO2 production, energy expenditure, and locomotor activity were measured for 24 h. Then temperature was changed to 4° C. for 6 h. […] NanoString's nCounter analysis system performed direct detection of target molecules from a single sample using color-coded molecular barcodes, giving a digital quantification of the number of target molecules. A custom panel containing Ereg, thermogenic genes, and PPARα-target genes was designed and used for simultaneous quantification of 37 genes including housekeeping genes. All data were normalized to 3 housekeeping genes Gapdh, Pgk1, and Tubb quantified in the same samples using nSolver Software. Total mRNA (100 ng in 5 μl) was hybridized overnight with nCounter Reporter (20 μl) probes in hybridization buffer and in an excess of nCounter Capture probes (5 μL) at 65° C. for 16-20 h. The hybridization mixture containing target/probe complexes was allowed to bind to magnetic beads containing complementary sequences on the Capture Probe. After each target found a probe pair, excess probes were washed followed by sequential binding to sequences on the Reporter Probe. Biotinylated capture probe-bound samples were immobilized and recovered on a streptavidin-coated cartridge. The abundance of specific target molecules was then quantified using the nCounter Digital Analyzer. Individual fluorescent barcodes and target molecules present in each sample were recorded with a CCD camera by performing a high-density scan (600 fields of view). Images were processed internally into a digital format and were normalized using the NanoString nSolver software analysis tool. Counts were normalized for all target RNAs in all samples based on the positive control RNA to account for differences in hybridization efficiency and post-hybridization processing, purification, and immobilization of complexes. The average was normalized by background counts (the average of the eight negative control counts) for each sample. Subsequently, a normalization of mRNA content was performed based on Gapdh, Pgk1, and Tubb internal reference housekeeping genes. Plasma FFA and TG were measured in plasma samples from study 3, using kits from Wako Diagnostics (Mountain View, CA). Plasma samples were collected from mice in Study 3 and analyzed using a mouse leptin ELISA Kit (Alpco, Salem, NH) according to manufacturer's instruction. The absorbance (450 nm) was measured using Synergy H1 Hybrid Multi-Mode Microplate Reader. Insulin levels were measured in plasma from mice in Study 4 using an ultra-sensitive mouse insulin ELISA kit (Crystal Chem, Downers Grove, IL) according to manufacturer's instruction.

For “EREG: Epiregulin, member of the epidermal growth factor family; recombinant mouse or human protein”, the “metabolic rate at ambient temperature and after cold exposure” value (CLAMS) was “increase”, the “body temperature in the abdominal area” value (EREG 20 ng per depot every other day, 2 weeks, infrared camera) was “profound effects” and the weight gain (HF diet) was “prevented”. For the same substance, the “expression of PPARα target genes Mcat and Cpt2 in iAb fat” value (NanoString) was “increased”, the “expression of pro-inflammatory genes Tnfa and Mcp1 in iAb fat” value (NanoString) was “suppressed” and the “expression of thermogenic genes (Dio2, Pgc1a, Cidea, Rip140) and CoxIV in iAb fat” value (NanoString) was “significantly increased”. For the same substance, the “light and dark period activity” value (before and after cold exposure) was “did not influence”, the “Lep expression in iAb fat” value (between groups) was “similar” and the “levels of BAT marker Prdm16 in iAb fat” value (between groups) was “similar”. The food consumption (both groups) was “similar”, the “decrease of circulating triglyceride levels” value (compared to control group) was 48% and the “increase in Ucp1 and Pparg expression in iAb fat” value (mouse, in vivo) was “did not reach statistical significance”. The “less iAb fat than non-treated mice” value (mouse, in vivo) was 32%, the “liver, BAT and subcutaneous WAT weight” value (normalized to body weight) was “did not influence” and the “levels of secreted LEP, higher than in non-treated mice” value (plasma, ELISA) was 215%. The RER (treated vs non-treated) was “similar”, the “increase in non-esterified fatty acid in the circulation” value (vs control group) was 580% and the “time to maximal metabolic rate plateau during cold exposure” value (vs control group) was “significantly shorter”.
